Measurements published in patent US4789731A, “Semi-synthetic peptide antibiotics” (Bristol-Myers Company, priority 1987, dated 1988).

Assays:
Type in all cases: in vivo
Conditions in all cases: mice
P388 leukemia [1] = test: Antitumor effect against P388 leukemia, QD 1→3 ip
Experimental: (§1) Antitumor activity of representative compounds of the present invention was determined using in vivo murine transplantable P388 leukemia and B16 melanoma models.
(§2) P388 leukemia: female CDF1 and male BDF1 mice were inoculated by intraperitoneal injection of 0.8 ml diluted ascitic fluid containing 10^6 cells.
(§3) Test materials were dissolved in 0.9% saline containing 10% dimethyl sulfoxide and graded doses of them were administered to mice intraperitoneally 24 hrs after tumor implantation. Two dosing schedules were used for the P388 leukemia experiment: once daily on day 1 through day 3 (QD 1→3); and once daily on day 1 through day 9(QD 1→9). The QD 1→9 schedule was used for the B16 melanoma experiment.
(§4) Antitumor activity is evaluated as the increase in median survival time (MST) of treated (T) and control (C) animals for various dosage regimens expressed as a percentage ratio (T/C %=MST of treated.div.MST of control×100). For both in vivo P388 leukemia and in vivo B16 melanoma models, values for percentage ratios of 125 and above indicate significant antitumor effect.

P388 leukemia [2] = test: Antitumor effect against P388 leukemia, QD 1→9 ip
Experimental: as §1, §2, §3, §4

B16 melanoma = test: Antitumor effect against B16 melanoma, QD 1→9 ip
Experimental: as §1
B16 melanoma: male BDF1 mice were implanted with 0.5 ml of a 10% tumor brei intraperitoneally.
as §3, §4

SMILES	MST (% T/C) (P388 leukemia [1]; 10 mg/kg/day)	MST (% T/C) (P388 leukemia [2]; 1 mg/kg/day)	MST (% T/C) (P388 leukemia [2]; 2 mg/kg/day)	MST (% T/C) (P388 leukemia [2]; 0.13 mg/kg/day)	MST (% T/C) (P388 leukemia [2]; 0.25 mg/kg/day)	MST (% T/C) (P388 leukemia [1]; 1 mg/kg/day)	MST (% T/C) (P388 leukemia [1]; 3 mg/kg/day)	MST (% T/C) (P388 leukemia [2]; 0.63 mg/kg/day)	other results
CCCCCCCCCCCCCC(=O)N[C@H](C(=O)NC1CC(O)CCNC(=O)/C=C/C(C)NC1=O)[C@@H](C)O (some centres unmarked) [Example 3, n-Tetradecanoyl-III]	55 % T/C	150 % T/C	150 % T/C	–	–	–	–	–	–
CCCCCCCCCC(=O)N[C@H](C(=O)NC1CC(O)CCNC(=O)/C=C/C(C)NC1=O)[C@@H](C)O (some centres unmarked) [Example 2, n-Decanoyl-III]	64 % T/C	–	–	–	–	–	–	–	–
CCCCCCCCCC=CC=CC(=O)NC(C(=O)NC1CC(O)CCNC(=O)C=CC(C)NC1=O)C(C)O (centres unmarked) [BU-2867T C]	57 % T/C	170 % T/C	–	130 % T/C	160 % T/C	–	–	–	MST (% T/C) (B16 melanoma; 4 mg/kg/day): Tox; MST (% T/C) (P388 leukemia [2]; 4 mg/kg/day): 65 % T/C
CCCCCCC/C=C/C=C/C(=O)N[C@H](C(=O)N[C@H]1C[C@@H](O)CCNC(=O)/C=C/[C@H](C)NC1=O)[C@@H](C)O [BU-2867T A]	–	190 % T/C	Tox	130 % T/C	150 % T/C	145 % T/C	Tox	110 % T/C	MST (% T/C) (B16 melanoma; 1 mg/kg/day): 116 % T/C; MST (% T/C) (B16 melanoma; 2 mg/kg/day): Tox; MST (% T/C) (B16 melanoma; .13 mg/kg/day): 97 % T/C; MST (% T/C) (B16 melanoma; .25 mg/kg/day): 100 % T/C; MST (% T/C) (B16 melanoma; .5 mg/kg/day): 113 % T/C; MST (% T/C) (P388 leukemia [1]; .3 mg/kg/day): 130 % T/C; MST (% T/C) (P388 leukemia [2]; 0.5 mg/kg/day): 155 % T/C
CCCCCC=CCCC=CC=CC(=O)NC(C(=O)NC1CC(O)CCNC(=O)C=CC(C)NC1=O)C(C)O (centres unmarked) [BU-2867T B]	–	170 % T/C	180 % T/C	–	130 % T/C	–	–	130 % T/C	MST (% T/C) (B16 melanoma; 2 mg/kg/day): Tox; MST (% T/C) (P388 leukemia [2]; 4 mg/kg/day): Tox
CCCCCCCCCCCCCCCC(=O)NC(C(=O)NC1CC(O)CCNC(=O)C=CC(C)NC1=O)C(C)O [Example 10, Palmitoyl-L-Threonyl-II]	138 % T/C	–	–	–	–	114 % T/C	119 % T/C	–	–
CCCCCCCCOc1ccc(C(=O)N[C@H](C(=O)NC2CC(O)CCNC(=O)/C=C/C(C)NC2=O)[C@@H](C)O)cc1 (some centres unmarked) [Example 6, p-n-Octyloxybenzoyl-III]	–	Tox	–	140 % T/C	150 % T/C	150 % T/C	Tox	120 % T/C	–
CCCCCCCCCCCC(=O)N[C@H](C(=O)NC1CC(O)CCNC(=O)/C=C/C(C)NC1=O)[C@@H](C)O (some centres unmarked) [Example 1, n-Dodecanoyl-III]	–	150 % T/C	–	–	–	130 % T/C	–	–	–
